Laboratory results: patent US12391664B2, “GluN2C/D subunit selective antagonists of the N-methyl-D-aspartate receptor” (Emory University, priority 2018, dated 2025)
Read-outs that look alike come from different tables or passages of the source. Each block holds one compound with its values, some of them ahead of it.

What was measured:
Type in all cases: cell-based
[1] = molecular target: T1, recombinant rat GluN1/GluN2A (Rattus norvegicus, UniProt Q00959); assay: Two-electrode voltage-clamp recordings in Xenopus laevis oocytes, GluN2A; conditions: for I3 μM/Icontrol (mean ± SEM, %) GluN2A: 3 μM compound with 100 μM glutamate and 30 μM glycine, control set as 1; for GluN2A IC50: oocytes, 100 μM glutamate and 30 μM glycine
T1 construct: expressed in transfected cells; host or cells: Xenopus laevis oocytes injected with cRNA (GluN1:GluN2 ratio 1:2)
T1 sequence (Q00959 23-1464, other chains not shown): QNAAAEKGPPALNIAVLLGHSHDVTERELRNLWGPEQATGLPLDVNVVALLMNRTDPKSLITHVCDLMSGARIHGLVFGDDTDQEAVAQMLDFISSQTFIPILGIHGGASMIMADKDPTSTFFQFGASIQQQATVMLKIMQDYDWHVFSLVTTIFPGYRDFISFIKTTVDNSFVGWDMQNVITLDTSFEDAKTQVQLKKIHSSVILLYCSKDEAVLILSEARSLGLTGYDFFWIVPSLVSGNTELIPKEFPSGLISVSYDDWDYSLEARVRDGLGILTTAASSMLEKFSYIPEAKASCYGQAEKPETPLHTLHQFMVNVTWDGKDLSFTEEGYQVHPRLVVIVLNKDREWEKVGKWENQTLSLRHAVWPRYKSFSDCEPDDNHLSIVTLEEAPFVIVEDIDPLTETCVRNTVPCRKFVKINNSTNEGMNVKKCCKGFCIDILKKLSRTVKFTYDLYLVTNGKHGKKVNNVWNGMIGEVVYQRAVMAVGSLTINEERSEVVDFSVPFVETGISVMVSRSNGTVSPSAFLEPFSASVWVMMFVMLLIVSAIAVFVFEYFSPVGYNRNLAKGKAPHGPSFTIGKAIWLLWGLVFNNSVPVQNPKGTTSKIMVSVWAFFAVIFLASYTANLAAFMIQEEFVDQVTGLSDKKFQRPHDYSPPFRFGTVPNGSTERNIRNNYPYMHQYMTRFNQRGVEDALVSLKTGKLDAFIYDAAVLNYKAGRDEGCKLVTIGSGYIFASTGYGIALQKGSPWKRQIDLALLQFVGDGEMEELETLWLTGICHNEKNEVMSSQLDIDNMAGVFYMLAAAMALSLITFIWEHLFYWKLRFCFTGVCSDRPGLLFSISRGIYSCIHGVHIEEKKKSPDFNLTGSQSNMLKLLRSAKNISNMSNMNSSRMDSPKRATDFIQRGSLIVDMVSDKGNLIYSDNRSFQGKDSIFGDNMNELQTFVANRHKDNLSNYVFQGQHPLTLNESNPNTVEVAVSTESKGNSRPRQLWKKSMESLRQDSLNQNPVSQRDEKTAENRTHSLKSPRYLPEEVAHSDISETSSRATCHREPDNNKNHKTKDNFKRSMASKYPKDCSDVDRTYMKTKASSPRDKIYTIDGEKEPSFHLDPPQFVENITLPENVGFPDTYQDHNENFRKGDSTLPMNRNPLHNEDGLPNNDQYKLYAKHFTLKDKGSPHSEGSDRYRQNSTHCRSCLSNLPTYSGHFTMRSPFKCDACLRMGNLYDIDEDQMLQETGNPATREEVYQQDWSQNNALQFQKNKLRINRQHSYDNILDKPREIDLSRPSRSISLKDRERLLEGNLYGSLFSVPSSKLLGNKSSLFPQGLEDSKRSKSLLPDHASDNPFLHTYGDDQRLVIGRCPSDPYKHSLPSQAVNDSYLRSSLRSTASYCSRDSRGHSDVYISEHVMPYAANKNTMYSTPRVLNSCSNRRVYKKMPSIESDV
Description: (§1) All target compounds were evaluated for activity by the Traynelis laboratory at Emory University using two-electrode voltage-clamp recordings performed in Xenopus laevis oocytes expressing recombinant GluN2A-D subunits (Table 1). […] Two ester compounds 997-65 and 997-66 also performed no inhibition at GluN2A to GluN2D receptors. […] Consequently, for the compounds that Acker et al. already published, it was necessary to increase the concentration to 100 μM when collecting data for a concentration effect curve. […] Therefore, under this condition, we can only conclude that compound 997-67 remained potent at GluN2C/D-containing receptors, but its selectivity over GluN2A- and GluN2B-containing receptors could not be compared to 997-57. […] Finally, replacing the carboxylic acid to the bio-isostere amide yielded compounds 997-96 and 997-115, which dropped the potency 2- to 4-fold in comparison to their corresponding acids 997-74 and 997-114.
(§2) Two-electrode voltage-clamp recordings were performed in Xenopus laevis oocytes that were injected with mRNA to express recombinant rat GluN1/GluN2A, GluN1/GluN2B, GluN1/GluN2C, and GluN1/GluN2D. The recordings using unfertilized oocytes from Xenopus laevis were permitted by Emory University Institutional Animal Care and Use Committee (IACUC). An automatic injector (Nanoject II, Drummond Scientific) was used for cRNA injection using the pipettes filled with mineral oil. The cRNA that transcribed in vitro via the mMessage Machine kit (Ambion) was diluted with nuclease-free water, and then injected at GluN1/GluN2 with a ratio of 1:2. The oocytes were stored in Barth's solution that contained 88 mM NaCl, 5.0 mM Tris-HCl, 2.4 mM NaHCO3, 1.0 mM KCl, 0.84 mM MgSO4, 0.41 mM CaCl2, 0.33 mM Ca(NO3)2, 0.1 mg/ml gentamycin sulfate, 1.0 U/ml penicillin, and 1 μg/ml streptomycin at a pH of 7.4 and temperatures of 15-17° C. for two to five days before the two-electrode voltage-clamp recordings. When recording, the oocytes were placed in a perfusion chamber and continually washed with the recording solution comprised of 90 mM NaCl, 1.0 mM KCl, 0.50 mM BaCl2, 0.005 mM EDTA, and 10 mM HEPES at a pH of 7.4 and a temperature of 23° C. Glass electrodes with a tip resistance of 0.5 to 2.5 MΩ were obtained from thin-walled glass capillary tubes. Voltage electrodes and current electrodes were filled with 0.3 M and 3.0 M KCl, respectively. The recordings were executed with the oocytes membrane potential holding at −40 m V by an OC-725 amplifier (Warner Instrument Co). All compounds were dissolved in dimethyl sulfoxide (DMSO) as 20 mM stock solutions and future diluted to reach the desired concentration (0.05-0.5% (vol/vol) DMSO) in recording solution comprised of 30 μM glycine and 100 μM glutamate. Each compound was recorded 3-7 times in the least 4 oocytes from at least 2 different Xenopus laevis.
(§3) To evaluate the inhibition of compounds, the concentration-response curve was fitted with the average two-electrode voltage-clamp recording results with the equation
(§4) [formula] • where IC50 is the concentration of compounds that inhibit half maximal of the current response and N is the Hill slope.

[2] = molecular target: T2, recombinant rat GluN1/GluN2B (Rattus norvegicus, UniProt Q00960); assay: Two-electrode voltage-clamp recordings in Xenopus laevis oocytes, GluN2B; conditions: for I3 μM/Icontrol (mean ± SEM, %) GluN2B: 3 μM compound with 100 μM glutamate and 30 μM glycine, control set as 1; for GluN2B IC50: oocytes, 100 μM glutamate and 30 μM glycine
T2 construct: expressed in transfected cells; host or cells: Xenopus laevis oocytes injected with cRNA (GluN1:GluN2 ratio 1:2)
Description: as §1, §2, §3, §4

[3] = molecular target: T3, recombinant rat GluN1/GluN2C (Rattus norvegicus, UniProt P35439+Q00961); assay: Two-electrode voltage-clamp recordings in Xenopus laevis oocytes, GluN2C
T3 construct: expressed in transfected cells; host or cells: Xenopus laevis oocytes injected with cRNA (GluN1:GluN2 ratio 1:2)
T3 sequence (Q00961 20-1237, other chains not shown): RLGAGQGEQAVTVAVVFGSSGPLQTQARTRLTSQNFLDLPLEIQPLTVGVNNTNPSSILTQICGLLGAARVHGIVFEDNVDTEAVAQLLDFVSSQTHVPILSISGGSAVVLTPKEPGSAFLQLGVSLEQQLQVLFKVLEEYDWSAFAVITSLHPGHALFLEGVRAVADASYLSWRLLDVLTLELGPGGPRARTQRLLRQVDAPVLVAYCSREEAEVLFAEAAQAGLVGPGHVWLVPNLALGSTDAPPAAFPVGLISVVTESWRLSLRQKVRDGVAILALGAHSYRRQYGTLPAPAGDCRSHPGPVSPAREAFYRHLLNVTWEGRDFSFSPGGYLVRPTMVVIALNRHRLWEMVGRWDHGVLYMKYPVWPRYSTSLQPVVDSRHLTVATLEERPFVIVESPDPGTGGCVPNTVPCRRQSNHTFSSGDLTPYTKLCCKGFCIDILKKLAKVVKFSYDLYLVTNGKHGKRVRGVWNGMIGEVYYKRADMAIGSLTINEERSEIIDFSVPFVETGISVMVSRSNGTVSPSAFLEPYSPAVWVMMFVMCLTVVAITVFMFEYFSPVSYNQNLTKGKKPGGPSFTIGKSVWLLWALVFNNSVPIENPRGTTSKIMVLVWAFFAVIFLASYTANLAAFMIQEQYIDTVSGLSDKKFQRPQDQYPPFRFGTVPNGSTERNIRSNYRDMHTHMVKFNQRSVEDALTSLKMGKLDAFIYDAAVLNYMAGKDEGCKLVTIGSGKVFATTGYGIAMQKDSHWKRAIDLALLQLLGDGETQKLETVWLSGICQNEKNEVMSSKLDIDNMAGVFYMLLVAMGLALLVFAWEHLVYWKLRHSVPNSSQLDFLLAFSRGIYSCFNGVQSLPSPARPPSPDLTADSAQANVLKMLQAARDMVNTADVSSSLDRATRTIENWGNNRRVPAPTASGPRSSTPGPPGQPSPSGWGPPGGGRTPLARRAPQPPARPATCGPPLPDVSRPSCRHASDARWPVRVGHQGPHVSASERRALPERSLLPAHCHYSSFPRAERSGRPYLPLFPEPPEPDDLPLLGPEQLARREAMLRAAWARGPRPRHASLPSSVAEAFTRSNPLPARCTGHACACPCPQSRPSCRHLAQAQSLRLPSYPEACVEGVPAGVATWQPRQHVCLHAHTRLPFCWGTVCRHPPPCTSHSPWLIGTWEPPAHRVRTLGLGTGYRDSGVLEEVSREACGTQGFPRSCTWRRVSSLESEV
Description: as §1, §2, §3, §4

[4] = molecular target: T4, recombinant rat GluN1/GluN2C (Rattus norvegicus, UniProt Q00961); assay: as above; conditions: for I3 μM/Icontrol (mean ± SEM, %) GluN2C: 3 μM compound with 100 μM glutamate and 30 μM glycine, control set as 1; for GluN2C IC50: oocytes, 100 μM glutamate and 30 μM glycine
T4 construct: expressed in transfected cells; host or cells: Xenopus laevis oocytes injected with cRNA (GluN1:GluN2 ratio 1:2)
T4 sequence (Q00961 20-1237, other chains not shown): as above
Description: as §1, §2, §3, §4

[5] = molecular target: T5, recombinant rat GluN1/GluN2D (Rattus norvegicus, UniProt P35439+Q62645); assay: Two-electrode voltage-clamp recordings in Xenopus laevis oocytes, GluN2D
T5 construct: expressed in transfected cells; host or cells: Xenopus laevis oocytes injected with cRNA (GluN1:GluN2 ratio 1:2)
Description: as §1, §2, §3, §4

[6] = molecular target: T6, recombinant rat GluN1/GluN2D (Rattus norvegicus, UniProt Q62645); assay: as above; conditions: for I3 μM/Icontrol (mean ± SEM, %) GluN2D: 3 μM compound with 100 μM glutamate and 30 μM glycine, control set as 1; for 2A IC50 / 2D IC50 / 2B IC50 / 2D IC50: ratio of IC50 values; for GluN2D IC50: oocytes, 100 μM glutamate and 30 μM glycine
T6 construct: expressed in transfected cells; host or cells: Xenopus laevis oocytes injected with cRNA (GluN1:GluN2 ratio 1:2)
Description: as §1, §2, §3, §4

[7] = molecular target: T7, recombinant rat GluN1/GluN2A (Rattus norvegicus, UniProt P35439+Q00959); assay: Two-electrode voltage-clamp recordings in Xenopus laevis oocytes, GluN2A; conditions: oocytes, 100 μM glutamate and 30 μM glycine
T7 construct: expressed in transfected cells; host or cells: Xenopus laevis oocytes injected with cRNA (GluN1:GluN2 ratio 1:2)
T7 sequence (Q00959 23-1464, other chains not shown): as the sequence (Q00959 23-1464, other chains not shown) above
Description: as §1, §2, §3, §4

[8] = molecular target: T8, recombinant rat GluN1/GluN2B (Rattus norvegicus, UniProt P35439+Q00960); assay: Two-electrode voltage-clamp recordings in Xenopus laevis oocytes, GluN2B; conditions: oocytes, 100 μM glutamate and 30 μM glycine
T8 construct: expressed in transfected cells; host or cells: Xenopus laevis oocytes injected with cRNA (GluN1:GluN2 ratio 1:2)
Description: as §1, §2, §3, §4

[9] = oocytes, 100 μM glutamate and 30 μM glycine, read-out: GluN2C IC50
[10] = mean IC50 with bottom and top 95% confidence interval, read-out: Avg. GluN2D IC50 (95% CI)
[11] = oocytes, 100 μM glutamate and 30 μM glycine, read-out: GluN2D IC50

SMILES: O=C(CC(F)(F)CO)N1N=C(c2c(-c3ccc(Cl)cc3)c3ccccc3[nH]c2=O)CC1c1ccc(Cl)cc1 (single isomer, unassigned; (+)) [(+)-997-67]
I3 μM/Icontrol (mean ± SEM, %) GluN2A ([1]; listed as (+)-67): 98 ± 2.1%
I3 μM/Icontrol (mean ± SEM, %) GluN2B ([2]; listed as (+)-67): 87 ± 2.8%
IC50 [3, 9]: 8.5 µM
I3 μM/Icontrol (mean ± SEM, %) GluN2C ([4]; listed as (+)-67): 74 ± 2.1%
IC50 [5, 10]: 7.02 µM
IC50 [5, 11]: 3.6 µM
I3 μM/Icontrol (mean ± SEM, %) GluN2D ([6]; listed as (+)-67): 57 ± 3.5%

SMILES: Cc1c(C2=NNC(c3ccc(Cl)cc3)C2)c(=O)[nH]c2ccccc12 (centres unmarked) [997-77, 3-(5-(4-chlorophenyl)-4,5-dihydro-1H-pyrazol-3-yl)-4-methylquinolin-2(1H)-one]
GluN2A IC50 [1]: NE (NE indicates less than 50% inhibition at 30 μM.)
GluN2B IC50 [2]: NE (NE indicates less than 50% inhibition at 30 μM.)
GluN2C IC50 [4]: NE (NE indicates less than 50% inhibition at 30 μM.)
GluN2D IC50 [6]: NE (NE indicates less than 50% inhibition at 30 μM.)

SMILES: Cc1ccc2[nH]c(=O)c(C3=NN(C(=O)C(F)(F)CC(=O)O)C(c4ccc(Cl)cc4)C3)c(-c3ccc(Cl)cc3)c2c1 (centres unmarked) [997-90, 4-(5-(4-chlorophenyl)-3-(4-(4-chlorophenyl)-6-methyl-2-oxo-1,2-dihydroquinolin-3-yl)-4,5-dihydro-1H-pyrazol-1-yl)-3,3-difluoro-4-oxobutanoic acid]
IC50 [7]: 3 µM
IC50 [8]: 3 µM
IC50 [3, 9]: 0.4 µM
IC50 [5, 11]: 0.2 µM

The next lines start with results.

I3 μM/Icontrol (mean ± SEM, %) GluN2A ([1]; listed as (−)-67): 100 ± 0.89%
I3 μM/Icontrol (mean ± SEM, %) GluN2B ([2]; listed as (−)-67): 95 ± 2.2%
IC50 ([3]; mean IC50 with bottom and top 95% confidence interval, read-out: Avg. GluN2C IC50 (95% CI)): 2.71 µM
IC50 [3, 9]: 1.4 µM
I3 μM/Icontrol (mean ± SEM, %) GluN2C ([4]; listed as (−)-67): 42 ± 2.8%
IC50 [5, 10]: 0.97 µM
IC50 [5, 11]: 0.62 µM
I3 μM/Icontrol (mean ± SEM, %) GluN2D ([6]; listed as (−)-67): 26 ± 3.2%
fold more potent than the (+)-enantiomer at GluN2D ([6]; (−)- versus (+)-enantiomer): 6 fold
SMILES: O=C(CC(F)(F)CO)N1N=C(c2c(-c3ccc(Cl)cc3)c3ccccc3[nH]c2=O)CC1c1ccc(Cl)cc1 (single isomer, unassigned; (-)) [(−)-997-67]

IC50 [7]: 28 µM
IC50 [8]: 48 µM
2A IC50 / 2D IC50 [6]: 56
2B IC50 / 2D IC50 [6]: 96
SMILES: O=C(CC(F)(F)C(=O)O)N1N=C(c2c(-c3cccc(F)c3)c3ccccc3[nH]c2=O)CC1c1ccc(Cl)cc1 (centres unmarked) [997-69, 4-{5-(4-chlorophenyl)-3-[4-(3-fluorophenyl)-2-oxo-1,2-dihydroquinolin-3-yl]-4,5-dihydro-1H-pyrazol-1-yl}-2,2-difluoro-4-oxobutanoic acid]

IC50 [7]: 11 µM
IC50 [8]: 6.9 µM
selectivity at GluN2D- over GluN2A-containing receptor [6]: approximately 220 fold
2A IC50 / 2D IC50 [6]: 220
2B IC50 / 2D IC50 [6]: 138
SMILES: O=C(O)CC(F)(F)C(=O)N1N=C(c2c(-c3ccc(Cl)cc3)c3ccccc3[nH]c2=O)CC1c1ccc(Cl)cc1 (centres unmarked) [997-74, 4-(5-(4-chlorophenyl)-3-(4-(4-chlorophenyl)-2-oxo-1,2-dihydroquinolin-3-yl)-4,5-dihydro-1H-pyrazol-1-yl)-3,3-difluoro-4-oxobutanoic acid]

IC50 [8]: 54 µM
GluN2B IC50 [2]: weak potency
IC50 [3, 9]: 20 µM
GluN2C IC50 [4]: weak potency
IC50 [5, 11]: 19 µM
GluN2D IC50 [6]: weak potency
2B IC50 / 2D IC50 [6]: 3
SMILES: O=c1[nH]c2ccccc2c(-c2ccc(Cl)cc2)c1C1=NNC(c2ccncc2)C1 (centres unmarked) [997-78, 4-(4-chlorophenyl)-3-[5-(pyridin-4-yl)-4,5-dihydro-1H-pyrazol-3-yl]quinolin-2(1H)-one]
GluN2A IC50 [1]: NE (NE indicates less than 50% inhibition at 30 μM.)
